Reference: article PMC7794376 (Nature Communications, 2021)
≈ marks a conversion by molar mass, not a printed value. Where “and” joins values, the source holds several entries; their conditions need not be identical. Equal values may be shown once. Read-outs that look alike come from different tables or passages of the source.

What was measured:
MtbCoaBC = MtbCoaBC (Mycobacterium tuberculosis, UniProt P9WNZ1); assay: biochemical; type: biochemical; conditions: for Activity R1 / Activity R3: slope of absorbance at 360 nm vs time (s); for activity at 0.0625 µM / activity at 0.25 µM / activity at 0.5 µM / activity at 1 µM / activity at 2 µM: relative to average DMSO CT; for IC50: read-out: IC50 EnzChek MtbCoaBC; for Activity % / Inhibition %: MtbCoaBC, replicates R1-R3; for Activity % / Activity % R1 / Activity % R3: relative to average CT; for reaction rate (slope of absorbance at 360 nm versus time), replicates: IC50 MtbCoaBC MlCoA; for reaction rate (slope of absorbance at 360 nm versus time), replicates / % inhibition, replicates / % remaining activity relative to uninhibited control, replicates: three replicates
M. tuberculosis H37Rv = assay: MIC determination in different media; type: cell-based; conditions: Mycobacterium tuberculosis
[1] = MlCoA concentration 512 (log 2.70927; unit not given)
[2] = MlCoA concentration 1024 (log 3.0103; unit not given)

MtbCoaBC, sequence (P9WNZ1 whole entry): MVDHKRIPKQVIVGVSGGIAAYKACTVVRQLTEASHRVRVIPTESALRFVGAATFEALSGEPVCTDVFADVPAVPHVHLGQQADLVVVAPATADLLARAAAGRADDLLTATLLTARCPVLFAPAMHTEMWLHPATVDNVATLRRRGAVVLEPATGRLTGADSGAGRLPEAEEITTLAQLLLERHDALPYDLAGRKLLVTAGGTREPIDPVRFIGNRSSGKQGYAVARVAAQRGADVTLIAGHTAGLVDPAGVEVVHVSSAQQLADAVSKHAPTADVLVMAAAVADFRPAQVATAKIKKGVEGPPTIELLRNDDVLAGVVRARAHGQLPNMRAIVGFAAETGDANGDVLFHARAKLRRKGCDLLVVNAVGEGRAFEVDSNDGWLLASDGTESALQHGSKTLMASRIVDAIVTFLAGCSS

Molecule: O=c1cc(-c2ccc(O)cc2)oc2cc(O)c(O)c(O)c12 [2c]
- Activity R1 (MtbCoaBC; 0.03125 uM 2c, replicate R1): 0.0001739
- Activity R3 (MtbCoaBC; 0.03125 uM 2c, replicate R3): 0.000177
- inhibition at 0.0625 µM (MtbCoaBC; 0.0625 uM 2c, replicate R1, read-out: Inhibition % R1): 8.57%
- activity at 0.0625 µM (MtbCoaBC; 0.0625 uM 2c, replicate R1, read-out: Activity % R1): 91.4%
- Activity R1 (MtbCoaBC; 0.0625 uM 2c, replicate R1): 0.0001646
- inhibition at 0.0625 µM (MtbCoaBC; 0.0625 uM 2c, replicate R2, read-out: Inhibition % R2): 5.71%
- activity at 0.0625 µM (MtbCoaBC; 0.0625 uM 2c, replicate R2, read-out: Activity % R2): 94.3%
- inhibition at 0.0625 µM (MtbCoaBC; 0.0625 uM 2c, replicate R3, read-out: Inhibition % R3): 10.2%
- activity at 0.0625 µM (MtbCoaBC; 0.0625 uM 2c, replicate R3, read-out: Activity % R3): 89.8%
- Activity R3 (MtbCoaBC; 0.0625 uM 2c, replicate R3): 0.0001617
- inhibition at 0.25 µM (MtbCoaBC; 0.25 uM 2c, replicate R1, read-out: Inhibition % R1): 34%
- activity at 0.25 µM (MtbCoaBC; 0.25 uM 2c, replicate R1, read-out: Activity % R1): 66%
- Activity R1 (MtbCoaBC; 0.25 uM 2c, replicate R1): 0.0001189
- inhibition at 0.25 µM (MtbCoaBC; 0.25 uM 2c, replicate R2, read-out: Inhibition % R2): 32.6%
- activity at 0.25 µM (MtbCoaBC; 0.25 uM 2c, replicate R2, read-out: Activity % R2): 67.4%
- inhibition at 0.25 µM (MtbCoaBC; 0.25 uM 2c, replicate R3, read-out: Inhibition % R3): 28.9%
- activity at 0.25 µM (MtbCoaBC; 0.25 uM 2c, replicate R3, read-out: Activity % R3): 71.1%
- Activity R3 (MtbCoaBC; 0.25 uM 2c, replicate R3): 0.0001279
- inhibition at 0.5 µM (MtbCoaBC; 0.5 uM 2c, replicate R1, read-out: Inhibition % R1): 56.9%
- activity at 0.5 µM (MtbCoaBC; 0.5 uM 2c, replicate R1, read-out: Activity % R1): 43.1%
- Activity R1 (MtbCoaBC; 0.5 uM 2c, replicate R1): 0.000077692
- inhibition at 0.5 µM (MtbCoaBC; 0.5 uM 2c, replicate R2, read-out: Inhibition % R2): 60.3%
- activity at 0.5 µM (MtbCoaBC; 0.5 uM 2c, replicate R2, read-out: Activity % R2): 39.7%
- inhibition at 0.5 µM (MtbCoaBC; 0.5 uM 2c, replicate R3, read-out: Inhibition % R3): 53.5%
- activity at 0.5 µM (MtbCoaBC; 0.5 uM 2c, replicate R3, read-out: Activity % R3): 46.5%
- Activity R3 (MtbCoaBC; 0.5 uM 2c, replicate R3): 0.000083810
- inhibition at 1 µM (MtbCoaBC; 1 uM 2c, replicate R1, read-out: Inhibition % R1): 77.6%
- activity at 1 µM (MtbCoaBC; 1 uM 2c, replicate R1, read-out: Activity % R1): 22.4%
- Activity R1 (MtbCoaBC; 1 uM 2c, replicate R1): 0.000040344
- inhibition at 1 µM (MtbCoaBC; 1 uM 2c, replicate R2, read-out: Inhibition % R2): 82.6%
- activity at 1 µM (MtbCoaBC; 1 uM 2c, replicate R2, read-out: Activity % R2): 17.4%
- inhibition at 1 µM (MtbCoaBC; 1 uM 2c, replicate R3, read-out: Inhibition % R3): 72.1%
- activity at 1 µM (MtbCoaBC; 1 uM 2c, replicate R3, read-out: Activity % R3): 27.9%
- Activity R3 (MtbCoaBC; 1 uM 2c, replicate R3): 0.000050204
- inhibition at 2 µM (MtbCoaBC; 2 uM 2c, replicate R1, read-out: Inhibition % R1): 91.9%
- activity at 2 µM (MtbCoaBC; 2 uM 2c, replicate R1, read-out: Activity % R1): 8.07%
- Activity R1 (MtbCoaBC; 2 uM 2c, replicate R1): 0.000014525
- inhibition at 2 µM (MtbCoaBC; 2 uM 2c, replicate R2, read-out: Inhibition % R2): 95%
- activity at 2 µM (MtbCoaBC; 2 uM 2c, replicate R2, read-out: Activity % R2): 5.02%
- inhibition at 2 µM (MtbCoaBC; 2 uM 2c, replicate R3, read-out: Inhibition % R3): 84.9%
- activity at 2 µM (MtbCoaBC; 2 uM 2c, replicate R3, read-out: Activity % R3): 15.1%
- Activity R3 (MtbCoaBC; 2 uM 2c, replicate R3): 0.000027204
- activity at 0.03125 µM (MtbCoaBC; read-out: Activity % R1): 96.6%
- activity at 0.03125 µM (MtbCoaBC; read-out: Activity % R2): 96.7%
- activity at 0.03125 µM (MtbCoaBC; read-out: Activity % R3): 98.3%
- IC50 (MtbCoaBC): 0.41 ± 0.03 µM
- inhibition at 0.03125 µM (MtbCoaBC; read-out: Inhibition % R1): 3.4%
- inhibition at 0.03125 µM (MtbCoaBC; read-out: Inhibition % R2): 3.27%
- inhibition at 0.03125 µM (MtbCoaBC; read-out: Inhibition % R3): 1.68%
- MIC (M. tuberculosis H37Rv; read-out: Minimum inhibitory concentration (MIC), 7H9/ADC/Glycerol): > 250 µM
- MIC (M. tuberculosis H37Rv; read-out: Minimum inhibitory concentration (MIC), 7H9/Cholesterol/Tyloxapol): > 250 µM
- MIC (M. tuberculosis H37Rv; read-out: Minimum inhibitory concentration (MIC), GAST/Fe): 125 µM (≈ 35.8 µg/mL)

Molecule: CC(C)(COP(=O)(O)OP(=O)(O)OC[C@H]1O[C@@H](n2cnc3c(N)ncnc32)[C@H](O)[C@@H]1OP(=O)(O)O)[C@@H](O)C(=O)NCCC(=O)NCCSC(=O)CC(=O)O [MlCoA, malonyl-CoA]
- Activity % (MtbCoaBC; 8 uM MlCoA): 92.1% and 91.15% and 93.21%
- Inhibition % (MtbCoaBC; 8 uM MlCoA): 8.85% and 6.79% and 7.90%
- Activity % (MtbCoaBC; 16 uM MlCoA): 76.14% and 76.7% and 75.8%
- Inhibition % (MtbCoaBC; 16 uM MlCoA): 23.30% and 24.20% and 23.86%
- Activity % (MtbCoaBC; 32 uM MlCoA): 63.4% and 64.14% and 61%
- Inhibition % (MtbCoaBC; 32 uM MlCoA): 35.86% and 39.00% and 36.60%
- Activity % (MtbCoaBC; 64 uM MlCoA): 43.31% and 44.56% and 41.61%
- Inhibition % (MtbCoaBC; 64 uM MlCoA): 55.44% and 58.39% and 56.69%
- Activity % (MtbCoaBC; 128 uM MlCoA): 23.32% and 26.33% and 20.47%
- Inhibition % (MtbCoaBC; 128 uM MlCoA): 73.67% and 79.53% and 76.68%
- Activity % (MtbCoaBC; 256 uM MlCoA): 12.52% and 10.98% and 14.64%
- Inhibition % (MtbCoaBC; 256 uM MlCoA): 89.02% and 85.36% and 87.48%
- IC50 (MtbCoaBC; CoaB activity, […] CTP, […] PPA, 500 µM L-cysteine, average of three independent experiments ± SD): 48 ± 3 µM
- reaction rate (slope of absorbance at 360 nm versus time), replicates (MtbCoaBC; [1]): 0.000003647 and 0.000000222 and 0.000004502
- % inhibition, replicates (MtbCoaBC; [1]): 99.87 and 97.43 and 97.92
- % remaining activity relative to uninhibited control, replicates (MtbCoaBC; [1]): 2.081 and 0.1265 and 2.569
- reaction rate (slope of absorbance at 360 nm versus time), replicates (MtbCoaBC; [2]): 0.000003588 and 0.000000204 and 0.000003109
- % inhibition, replicates (MtbCoaBC; [2]): 99.88 and 98.23 and 97.95
- % remaining activity relative to uninhibited control, replicates (MtbCoaBC; [2]): 2.047 and 0.1162 and 1.774

Molecule: succinyl-CoA [SucCoA]
- Activity % R1 (MtbCoaBC; 8 uM SucCoA, replicate R1): 96.11%
- Activity % R3 (MtbCoaBC; 8 uM SucCoA, replicate R3): 95.1%
- Inhibition % R1 (MtbCoaBC; 8 uM SucCoA, replicate R1): 3.89%
- Inhibition % R3 (MtbCoaBC; 8 uM SucCoA, replicate R3): 4.90%
- Activity R1 (MtbCoaBC; 8 uM SucCoA, replicate R1): 0.0001648
- Activity R3 (MtbCoaBC; 8 uM SucCoA, replicate R3): 0.0001631
- Activity % R1 (MtbCoaBC; 16 uM SucCoA, replicate R1): 73.57%
- Activity % R3 (MtbCoaBC; 16 uM SucCoA, replicate R3): 71.48%
- Inhibition % R1 (MtbCoaBC; 16 uM SucCoA, replicate R1): 26.43%
- Inhibition % R3 (MtbCoaBC; 16 uM SucCoA, replicate R3): 28.52%
- Activity R1 (MtbCoaBC; 16 uM SucCoA, replicate R1): 0.0001261
- Activity R3 (MtbCoaBC; 16 uM SucCoA, replicate R3): 0.0001226
- Activity % R1 (MtbCoaBC; 32 uM SucCoA, replicate R1): 58.32%
- Activity % R3 (MtbCoaBC; 32 uM SucCoA, replicate R3): 59.99%
- Inhibition % R1 (MtbCoaBC; 32 uM SucCoA, replicate R1): 41.68%
- Inhibition % R3 (MtbCoaBC; 32 uM SucCoA, replicate R3): 40.01%
- Activity R1 (MtbCoaBC; 32 uM SucCoA, replicate R1): 0.000099995
- Activity R3 (MtbCoaBC; 32 uM SucCoA, replicate R3): 0.0001029
- Activity % R1 (MtbCoaBC; 64 uM SucCoA, replicate R1): 30.98%
- Activity % R3 (MtbCoaBC; 64 uM SucCoA, replicate R3): 29.66%
- Inhibition % R1 (MtbCoaBC; 64 uM SucCoA, replicate R1): 69.02%
- Inhibition % R3 (MtbCoaBC; 64 uM SucCoA, replicate R3): 70.34%
- Activity R1 (MtbCoaBC; 64 uM SucCoA, replicate R1): 0.000053122
- Activity R3 (MtbCoaBC; 64 uM SucCoA, replicate R3): 0.000050860
- Activity % R1 (MtbCoaBC; 128 uM SucCoA, replicate R1): 16.56%
- Activity % R3 (MtbCoaBC; 128 uM SucCoA, replicate R3): 18.74%
- Inhibition % R1 (MtbCoaBC; 128 uM SucCoA, replicate R1): 83.44%
- Inhibition % R3 (MtbCoaBC; 128 uM SucCoA, replicate R3): 81.26%
- Activity R1 (MtbCoaBC; 128 uM SucCoA, replicate R1): 0.000028403
- Activity R3 (MtbCoaBC; 128 uM SucCoA, replicate R3): 0.000032131
- Activity % R1 (MtbCoaBC; 256 uM SucCoA, replicate R1): 6.801%
- Activity % R3 (MtbCoaBC; 256 uM SucCoA, replicate R3): 8.41%
- Inhibition % R1 (MtbCoaBC; 256 uM SucCoA, replicate R1): 93.20%
- Inhibition % R3 (MtbCoaBC; 256 uM SucCoA, replicate R3): 91.59%
- Activity R1 (MtbCoaBC; 256 uM SucCoA, replicate R1): 0.000011661
- Activity R3 (MtbCoaBC; 256 uM SucCoA, replicate R3): 0.000014421
